Patent US8691840B2, “N-biarylamides” (Bayer Intellectual Property GmbH, priority 2003, dated 2014)
Structures can show the parent of a compound that is named as a salt.

Target: α7 nAChR (Rattus norvegicus (Rat), UniProt Q05941)
Assay: [3H]-methyllycaconitine binding assay, rat brain membranes
Details: inhibition of [3H]-methyllycaconitine binding to rat brain membranes; Ki=IC50/(1+L/KD)
Method: 1. Determination of the Affinity of Test Substances for α7 nAChR by Inhibition of [^3H]-methyllycaconitine Binding to Rat Brain Membranes
The [^3H]-methyllycaconitine binding assay is a modification of the method described by Davies et al. (Neuropharmacol. 1999, 38, 679-690).
Rat brain tissue (hippocampus or whole brain) is homogenized in homogenization buffer (10% w/v) (0.32 M sucrose, 1 mM EDTA, 0.1 mM phenylmethylsulfonyl fluoride (PMSF), 0.01% (w/v) NaN3, pH 7.4, 4° C.) at 600 rpm in a glass homogenizer. The homogenate is centrifuged (1000×g, 4° C., 10 min) and the supernatant is removed. The pellet is resuspended (20% w/v) and the suspension is centrifuged (1000×g, 4° C., 10 min) The two supernatants are combined and centrifuged (15 000×g, 4° C., 30 min). This pellet is referred to as the P2 fraction.
The P2 pellet is washed twice with binding buffer (50 mM Tris-HCl, 1 mM MgCl2, 120 mM NaCl, 5 mM KCl, 2 mM CaCl2, pH 7.4), and centrifuged (15 000×g, 4° C., 30 min).
The P2 membranes are resuspended in binding buffer and incubated in a volume of 250 μl (amount of membrane protein 0.1-0.5 mg) in the presence of 1-5 nM [^3H]-methyllycaconitine, 0.1% (w/v) BSA (bovine serum albumin) and various concentrations of the test substance at 21° C. for 2.5 h. The non-specific binding is determined by incubation in the presence of 1 μM […]-bungarotoxin or 100 μM nicotine or 10 μM MLA (methyllycaconitine).
The incubation is stopped by adding 4 ml of PBS (20 mM Na2HPO4, 5 mM KH2PO4, 150 mM NaCl, pH 7.4, 4° C.) and filtering through type A/E glass fiber filters (Gelman Sciences) which have previously been placed in 0.3% (v/v) polyethyleneimine (PEI) for 3 h. The filters are washed twice with 4 ml of PBS (4° C.), and the bound radioactivity is determined by scintillation measurement. All the assays are carried out in triplicate. The dissociation constant Ki of the test substance was determined from the IC50 of the compounds (concentration of the test substance at which 50% of the ligand bound to the receptor are displaced), the dissociation constant KD and the concentration L of [^3H]methyllycaconitine (Ki=IC50/(1+L/KD)).

α7 nAChR, sequence (Q05941 23-502 limits assumed): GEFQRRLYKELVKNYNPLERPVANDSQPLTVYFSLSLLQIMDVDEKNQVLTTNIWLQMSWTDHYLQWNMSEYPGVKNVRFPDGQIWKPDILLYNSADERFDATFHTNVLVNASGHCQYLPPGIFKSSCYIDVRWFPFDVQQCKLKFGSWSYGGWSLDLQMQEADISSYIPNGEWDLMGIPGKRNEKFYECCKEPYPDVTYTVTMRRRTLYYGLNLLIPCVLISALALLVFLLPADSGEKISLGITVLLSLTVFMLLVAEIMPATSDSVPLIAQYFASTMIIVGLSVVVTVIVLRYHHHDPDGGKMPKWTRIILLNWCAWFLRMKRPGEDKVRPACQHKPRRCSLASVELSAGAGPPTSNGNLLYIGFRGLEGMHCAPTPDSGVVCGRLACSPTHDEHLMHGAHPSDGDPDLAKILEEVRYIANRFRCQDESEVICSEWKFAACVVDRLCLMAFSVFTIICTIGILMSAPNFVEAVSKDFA

| SMILES | Ki |
| --- | --- |
| CS(=O)(=O)Nc1ccc(-c2ccc(NC(=O)[C@H]3CN4CCC3CC4)cc2)cc1 [Example 2, (3R)-N-{4′-[(Methylsulfonyl)amino]biphenyl-4-yl}quinuclidine-3-carboxamide hydrochloride] | 2 nM |
| O=C(Nc1ccc(-c2ccc(NS(=O)(=O)c3ccccc3)cc2)cc1)[C@H]1CN2CCC1CC2 [Example 5, (3R)—N-{4′-[(Phenylsulfonyl)amino]biphenyl-4-yl}quinuclidine-3-carboxamide hydrochloride] | < 1 nM |
| NS(=O)(=O)c1ccc(-c2ccc(NC(=O)[C@H]3CN4CCC3CC4)cc2)cc1 [Example 7, (3R)—N-[4′-(Aminosulfonyl)biphenyl-4-yl]quinuclidine-3-carboxamide hydrochloride] | < 1 nM |
| O=C(Nc1ccc(-c2ccc(NC(=O)[C@H]3CN4CCC3CC4)cc2)cc1)NC1CCCC1 [Example 11, (3R)—N-(4′-{[(Cyclopentylamino)carbonyl]amino}biphenyl-4-yl)quinuclidine-3-carboxamide hydrochloride] | 16 nM |
| O=C(Nc1ccc(-c2ccc(NC(=O)[C@H]3CN4CCC3CC4)cc2)cc1)c1cccc(F)c1 [Example 15, (3R)—N-{4′-[(3-Fluorobenzoyl)amino]biphenyl-4-yl}quinuclidine-3-carboxamide hydrochloride] | 27 nM |
